Assay [1] deals with carbapenemase producing K. pneumoniae. The experiment in a line: MIC by broth micro-dilution (CLSI), carbapenemase producing K. pneumoniae. The assay is classed as cell-based, Klebsiella pneumoniae. As to conditions: Klebsiella pneumoniae, ATCCBAA1705, KPC-2 K. pneumoniae ATCC BAA-1705; read-out: MIC. On the technique in general: In broth dilution the organism is exposed to a series of concentrations in liquid medium.

Assay [2] relates to methicillin-sensitive Staphylococcus aureus. Nature of the assay: MIC by broth micro-dilution (CLSI), methicillin-sensitive S. aureus. As to conditions: Staphylococcus aureus, ATCC 29213 / MSSA, MSSA S. aureus ATCC29213; read-out: MIC. It is filed as cell-based.
The test system of assay [3] is carbapenem sensitive Escherichia coli. Nature of the assay: MIC by broth micro-dilution (CLSI), carbapenem sensitive E. coli. It is filed as cell-based. The note with it: Escherichia coli, ATCC25922, ESBL −ve E. coli ATCC25922; read-out: MIC.
Assay [4] relates to carbapenem sensitive Pseudomonas aeruginosa. Nature of the assay: MIC by broth micro-dilution (CLSI), carbapenem sensitive P. aeruginosa. It is filed as cell-based. The note with it: Pseudomonas aeruginosa, ATCC27853, Meropenem susceptible P. aeruginosa ATCC27853; read-out: MIC.

Values after ≈ are worked out from the molar mass of the structure shown.

As usually defined, the MIC is the lowest concentration found to suppress growth. Turning to `C[C@@H](NC(=O)Cn1cnnn1)[C@H]1C(=O)N2C(C(=O)O)=C(S[C@@H]3CN[C@H](C(=O)N4CC5C[C@@H]6C[C@]5(CN6)C4)C3)[C@H](C)[C@H]12` (stereo partly drawn) [Example 564, (4R,5S,6R)-6-((R)-1-(2-(1H-tetrazol-1-yl)acetamido)ethyl)-3-((3S,5S)-5-((1S,7R)-3,8-Diaza-tricyclo[5.2.1.01,5]decane-3-carbonyl)-pyrrolidin-3-ylthio)-4-methyl-7-oxo-1-azabicyclo[3.2.0]hept-2-ene-2-carbnxylic acid], the MIC in assay [1] worked out at 1 µg/mL (≈ 1.71 µM); in assay [2], 2 µg/mL (≈ 3.41 µM); in assay [3], 0.125 µg/mL (≈ 0.213 µM); in assay [4] it was 1 µg/mL (≈ 1.71 µM).

As for `C[C@@H](NC(=O)Cn1cnnn1)[C@H]1C(=O)N2C(C(=O)O)=C(S[C@@H]3CN[C@H](C(=O)N4C[C@H](N)[C@H](NC(=N)N)C4)C3)[C@H](C)[C@H]12` [Example 565, (4R,5S,6R)-6-((R)-1-(2-(1H-tetrazol-1-yl)acetamido)ethyl)-3-((3S,5S)-5-((3S,4R)-3-amino-4-guanidinopyrrolidine-1-carbonyl)-pyrrolidin-3-ylthio)-4-methyl-7-oxo-1-azabicyclo[3.2.0]hept-2-ene-2-carboxylic acid], the MIC in assay [1] is 2 µg/mL (≈ 3.39 µM); in assay [2], 2 µg/mL (≈ 3.39 µM); in assay [3] it was 0.25 µg/mL (≈ 0.423 µM); in assay [4] it was 1 µg/mL (≈ 1.69 µM).

Consider `C[C@@H](NC(=O)Cn1cnnn1)[C@H]1C(=O)N2C(C(=O)O)=C(S[C@@H]3CN[C@H](C(=O)N4CC(NC(=N)N)C4)C3)[C@H](C)[C@H]12` [Example 566, (4R,5S,6R)-6-((R)-1-(2-(1H-tetrazol-1-yl)acetamido)ethyl)-3-((3S,5S)-5-(3-guanidinoazetidine-1-carbonyl)pyrrolidin-3-ylthio)-4-methyl-7-oxo-1-azabicyclo[3.2.0]hept-2-ene-2-carboxylic acid], for which the MIC in assay [1] worked out at 0.5 µg/mL (≈ 0.89 µM); in assay [2], 0.5 µg/mL (≈ 0.89 µM); in assay [3] it was 0.06 µg/mL (≈ 0.107 µM); in assay [4], 0.25 µg/mL (≈ 0.445 µM).

`C[C@@H](NC(=O)Cn1cnnn1)[C@H]1C(=O)N2C(C(=O)O)=C(S[C@@H]3CN[C@H](C(=O)N4CC[C@@H](NC(=O)CNC(=N)N)C4)C3)[C@H](C)[C@H]12` [Example 567, (4R,5S,6R)-6-((R)-1-(2-(1H-tetrazol-1-yl)acetamido)ethyl)-3-((3S,5S)-5-((R)-3-(2-guanidinoacetamido)pyrrolidine-1-carbonyl)pyrrolidin-3-ylthio)-4-methyl-7-oxo-1-azabicyclo[3.2.0]hept-2-ene-2-carboxylic acid]: the MIC in assay [1] was determined as 0.5 µg/mL (≈ 0.79 µM); in assay [2], 1 µg/mL (≈ 1.58 µM); in assay [3], 0.125 µg/mL (≈ 0.198 µM); in assay [4] it was 1 µg/mL (≈ 1.58 µM).

In the case of `C[C@@H](NC(=O)CC1CNC1)[C@H]1C(=O)N2C(C(=O)O)=C(S[C@@H]3CN[C@H](C(=O)N4CC[C@@H](N)C4)C3)[C@H](C)[C@H]12` [Example 568, (4R,5S,6R)-3-((3S,5S)-5-((R)-3-aminopyrrolidine-1-carbonyl)pyrroldin-3-ylthio)-6-((R)-1-(2-(azetidin-3-yl)acetamido)ethyl)-4-methyl-7-oxo-1-azabicyclo[3.2.0]hept-2-ene-2-carboxylic acid], the MIC in assay [1] is 2 µg/mL (≈ 3.84 µM); in assay [2], 16 µg/mL (≈ 30.7 µM); in assay [3], 1 µg/mL (≈ 1.92 µM); in assay [4], 4 µg/mL (≈ 7.68 µM).

With `C[C@@H](NC(=O)Cn1cnnn1)[C@H]1C(=O)N2C(C(=O)O)=C(S[C@@H]3CN[C@H](C(=O)N4C[C@@]56CNCC5C[C@@H]4C6)C3)[C@H](C)[C@H]12` (stereo partly drawn) [Example 571, (4R,5S,6R)-6-((R)-1-(2-(1H-tetrazol-1-yl)acetamido)ethyl)-3-((3S,5S)-5-((1R,7R)-3,8-Diaza-tricyclo[5.2.1.01,5]decane-8-carbonyl)-pyrrolidin-3-ylthio)-4-methyl-7-oxo-1-azabicyclo[3.2.0]hept-2-ene-2-carboxylic acid], the MIC in assay [1] amounted to 0.5 µg/mL (≈ 0.854 µM); in assay [2], 1 µg/mL (≈ 1.71 µM); in assay [3], 0.06 µg/mL (≈ 0.102 µM); in assay [4] it was 1 µg/mL (≈ 1.71 µM).

Regarding `C[C@@H](NC(=O)Cn1cnnn1)[C@H]1C(=O)N2C(C(=O)O)=C(S[C@@H]3CN[C@H](C(=O)N4C[C@H]5C[C@H](N)C[C@@]5(N)C4)C3)[C@H](C)[C@H]12` [Example 574, (4R,5S,6R)-6-((R)-1-(2-(1H-tetrazol-1-yl)acetamido)ethyl)-3-((3S,5S)-5-((3aS,5S,6aR)-3a,5-diaminooctahydrocyclo-penta[c]pyrrole-2-carbonyl)pyrrolidin-3-ylthio)-4-methyl-7-oxo-1-azabicyclo[3.2.0]hept-2-ene-2-carboxylic acid], the MIC in assay [1] amounted to 4 µg/mL (≈ 6.79 µM); in assay [2], 8 µg/mL (≈ 13.6 µM); in assay [3], 0.5 µg/mL (≈ 0.849 µM); in assay [4] it was 2 µg/mL (≈ 3.4 µM).

On to `C[C@@H](NC(=O)Cn1cnnn1)[C@H]1C(=O)N2C(C(=O)O)=C(S[C@@H]3CN[C@H](C(=O)N4C[C@@H](NC(=N)N)C[C@H]4CO)C3)[C@H](C)[C@H]12` [Example 576, (4R,5S,6R)-6-((R)-1-(2-(1H-tetrazol-1-yl)acetamido)ethyl)-3-((3S,5S)-5-((2S,4S)-4-guanidino-2-(hydroxymethyl)-pyrrolidine-1-carbonyl)pyrrolidin-3-ylthio)-4-methyl-7-oxo-1-azabicyclo[3.2.0]hept-2-ene-2-carboxylic acid], for which the MIC is 0.5 µg/mL (≈ 0.826 µM) in assay [1], 1 µg/mL (≈ 1.65 µM) in assay [2], 0.125 µg/mL (≈ 0.206 µM) in assay [3] and 0.25 µg/mL (≈ 0.413 µM) in assay [4].

For the compound `C[C@@H](NC(=O)Cn1cnnn1)[C@H]1C(=O)N2C(C(=O)O)=C(S[C@@H]3CN[C@H](C(=O)N4CC5CCN(CCN)C5C4)C3)[C@H](C)[C@H]12` (stereo partly drawn) [Example 577, (4R,5S,6R)-6-((R)-1-(2-(1H-tetrazol-1-yl)acetamido)ethyl)-3-((3S,5S)-5-(1-(2-aminoethyl)octahydropyrrolo[3,4-b]pyrrole-5-carbonyl)pyrrolidin-3-ylthio)-4-methyl-7-oxo-1-azabicyclo[3.2.0]hept-2-ene-2-carboxylic acid], the MIC in assay [1] was 2 µg/mL (≈ 3.32 µM); in assay [2] it was 4 µg/mL (≈ 6.64 µM); in assay [3], 0.25 µg/mL (≈ 0.415 µM); in assay [4], 4 µg/mL (≈ 6.64 µM).

As for `C[C@@H](NC(=O)Cn1cnnn1)[C@H]1C(=O)N2C(C(=O)O)=C(SCCNC(=N)N)[C@H](C)[C@H]12` [Example 579, (4R,5S,6R)-6-((R)-1-(2-(1H-tetrazol-1-yl)acetamido)ethyl)-3-(2-guanidinoethylthio)-4-methyl-7-oxo-1-azabicyclo[3.2.0]hept-2-ene-carboxylic acid], the MIC is 1 µg/mL (≈ 2.29 µM) in assay [1], 4 µg/mL (≈ 9.14 µM) in assay [2], 0.25 µg/mL (≈ 0.571 µM) in assay [3] and 16 µg/mL (≈ 36.6 µM) in assay [4].

In the case of `C[C@@H](NC(=O)Cn1cnnn1)[C@H]1C(=O)N2C(C(=O)O)=C(S[C@@H]3CN[C@H](C(=O)N4C[C@@H]5NC(=N)N[C@@H]5C4)C3)[C@H](C)[C@H]12` [Example 580, (4R,5S,6R)-6-((R)-1-(2-(1H-tetrazol-1-yl)acetamido)ethyl)-3-((3S,5S)-5-((3aR,6aS)-2-iminooctahydropyrrolo[3,4-d]imidazole-5-carbonyl)pyrrolidin-3-ylthio)-methyl-7-oxo-1-azabicyclo[3.2.0]hept-2-ene-2-carboxylic acid], the MIC in assay [1] is 1 µg/mL (≈ 1.74 µM); in assay [2], 2 µg/mL (≈ 3.49 µM); in assay [3], 0.25 µg/mL (≈ 0.436 µM); in assay [4], 0.5 µg/mL (≈ 0.872 µM).

Regarding `C[C@@H](NC(=O)Cn1cnnn1)[C@H]1C(=O)N2C(C(=O)O)=C(S[C@@H]3CN[C@H](C(=O)N4CC5CC(NC(=N)N)CC5C4)C3)[C@H](C)[C@H]12` (stereo partly drawn) [Example 581, (4R,5S,6R)-6-((R)-1-(2-(1H-tetrazol-yl)acetamido)ethyl)-3-((3S,5S)-5-(5-guanidinooctahydroyclopenta[c]pyrrole-2-carbonyl)pyrrolidin-3-ylthio)-4-methyl-7-oxo-1-azabicyclo[3.2.0]hept-2-ene-2-carboxylic acid], the MIC in assay [1] was found to be 8 µg/mL (≈ 13 µM); in assay [2] it was 8 µg/mL (≈ 13 µM); in assay [3] it was 0.5 µg/mL (≈ 0.812 µM); in assay [4] it was 64 µg/mL (≈ 104 µM).

For `C[C@@H](NC(=O)Cn1cnnn1)[C@H]1C(=O)N2C(C(=O)O)=C(S[C@@H]3CN[C@H](C(=O)N4CC[C@H](NC(=N)N)C4)C3)[C@H](C)[C@H]12` [Example 582, (4R,5S,6R)-6-((R)-1-(2-(1H-tetrazol-1-yl)acetamido)-ethyl)-3-((3S,5S)-5-((S)-3-guanidino-pyrrolidine-1-carbonyl)pyrrolidin-3-ylthio)-4-methyl-7-oxo-1-azabicyclo[3.2.0]hept-ene-2-carboxylic acid], the minimum inhibitory concentration (MIC) in assay [1] was determined as 2 µg/mL (≈ 3.47 µM); in assay [2], 2 µg/mL (≈ 3.47 µM); in assay [3], 0.25 µg/mL (≈ 0.434 µM); in assay [4], 0.5 µg/mL (≈ 0.869 µM).

On to `C[C@@H](NC(=O)Cn1cnnn1)[C@H]1C(=O)N2C(C(=O)O)=C(S[C@@H]3CN[C@H](C(=O)N4C[C@@H](CO)[C@H](NC(=N)N)C4)C3)[C@H](C)[C@H]12` [Example 583, (4R,5S,6R)-6-((R)-1-(2-(1H-tetrazol-1-yl)acetamido)ethyl)-3-((3S,5S)-5-((3S,4R)-3-guanidino-4-(hydroxymethyl)pyrrolidine-1-carbonyl)pyrrolidin-3-ylthio)-4-methyl-7-oxo-1-azabicyclo[3.2.0]hept-2-ene-2-carboxylic acid], for which the MIC came to 1 µg/mL (≈ 1.65 µM) in assay [1], 1 µg/mL (≈ 1.65 µM) in assay [2], 0.03 µg/mL (≈ 0.0495 µM) in assay [3] and 0.5 µg/mL (≈ 0.826 µM) in assay [4].

Turning to `C[C@@H](NC(=O)Cn1cnnn1)[C@H]1C(=O)N2C(C(=O)O)=C(S[C@@H]3CN[C@H](C(=O)N4C[C@@H](CO)[C@H](N)C4)C3)[C@H](C)[C@H]12` [Example 584, (4R,5S,6R)-6-((R)-1-(2-(1H-tetrazol-1-yl)acetamido)ethyl)-3-((3S,5S)-5-((3S,4R)-3-amino-4-(hydroxymethyl)pyrrolidine-1-carbonyl)pyrrolidin-3-ylthio)-4-methyl-7-oxo-1-azabicyclo[3.2.0]hept-2-ene-2-carboxylic acid], the MIC in assay [1] was found to be 1 µg/mL (≈ 1.77 µM); in assay [2], 2 µg/mL (≈ 3.55 µM); in assay [3] it was 0.25 µg/mL (≈ 0.444 µM); in assay [4] it was 1 µg/mL (≈ 1.77 µM).

These data come from patent US11180504B2 (ORCHID PHARMA LTD., priority 2016, dated 2021).
